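1) Cells in 96-well plates. 2) Compound, 48 h, 5 concentrations. 3) Linear interpolation between surrounding doses. 4) Unreached endpoint = highest concentration. TGI marks complete inhibition of growth.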
Tests used:
Assay in all cases: NCI-60 cell line screen, 48 h
[1] = test system: HT29 colon
[2] = test system: SF-268 CNS
[3] = test system: DU-145 prostate
[4] = test system: UACC-257 melanoma
[5] = test system: COLO 205 colon
[6] = test system: SK-MEL-28 melanoma
[7] = test system: 786-0 renal
[8] = test system: BT-549 breast
[9] = test system: KM12 colon
[10] = test system: EKVX NSCLC
[11] = test system: CAKI-1 renal
[12] = test system: CCRF-CEM leukemia
[13] = test system: K-562 leukemia
[14] = test system: NCI-H23 lung
[15] = test system: RPMI-8226 leukemia
[16] = test system: SN12C renal
[17] = test system: OVCAR-4 ovarian
[18] = test system: OVCAR-5 ovarian

Row | SMILES | TGI [1] [µM] | TGI [2] [µM] | TGI [3] [µM] | TGI [4] [µM] | TGI [5] [µM] | TGI [6] [µM] | TGI [7] [µM] | TGI [8] [µM] | TGI [9] [µM] | TGI [10] [µM] | TGI [11] [µM] | TGI [12] [µM] | TGI [13] [µM] | TGI [14] [µM] | TGI [15] [µM] | TGI [16] [µM] | TGI [17] [µM] | TGI [18] [µM]
1 | O=c1c2c3c(sc2nc2n1N=CN(c1ccc(F)cc1)C2)CCCC3 | > 100 | > 100 | > 100 | > 100 | > 100 | > 100 | > 100 | > 100 | > 100 | > 100 | > 100 | > 100 | > 100 | > 100 | > 100 | > 100 | > 100 | > 100
2 | C=CCCC(=O)C(=[N+]=[N-])C(=O)CCC(=O)c1ccccc1 | > 10 | > 10 | > 10 | > 10 |  | > 10 | > 10 | > 10 |  | > 10 |  |  | > 10 | > 10 | > 10 | > 10 |  | > 10
3 | O=C(C1OC1c1cccc([N+](=O)[O-])c1)C12CC3CC(CC(C3)C1)C2 (stereo not given) | 13 | 9.18 | 26.8 | 25.4 | 23.4 | 25.6 | 7.1 | 12.6 | 13.9 | 27 | 24.5 | 13.1 | 13.2 | 17.7 | 6.18 | 13.2 | 15.4 | 18.9
4 | COc1ccc(/C=C/C(=O)Oc2ccccc2OC)cc1 | > 59 | 4.71 | > 100 | > 100 | 21.2 | > 100 | > 67 | > 100 | 31.3 | > 100 | > 91.1 | 10.5 | > 100 | > 100 | 5.22 | 58.2 | > 60.7 | 98.2
5 | CCOC(=O)/C=C(/C(=O)OCC)n1ccc(=O)n(Cc2cnnn2CCCCOC(C)=O)c1=O | > 100 | > 100 | > 100 | > 100 | 46 | > 100 | > 100 | > 100 | > 100 | > 100 | 76.3 | 30.9 | > 100 | > 100 | > 100 | > 100 | > 100 | > 100
6 | O=C(Nc1ccc2cc3ccccc3cc2c1)c1cc2c(cc1Cl)Sc1nccn1S2(=O)=O | > 100 | 97.6 | > 100 | > 100 | > 100 | > 100 | 30 | > 100 | > 100 | > 100 | > 100 |  | > 100 | > 100 | > 100 | > 100 | > 100 | 93.5
7 | CC(=O)NC1(C)C(C)C2CC1C(C)C2(C)C (stereo not given) | > 100 | > 100 | > 100 | > 100 | > 100 | > 100 | > 100 | > 100 | > 100 | > 100 | > 100 | > 100 | > 100 | > 100 |  | > 100 | > 100 | > 100
8 | Cc1cc2nnc(C(N)=O)c(N)c2cc1C | > 100 | > 100 | > 100 | > 100 | > 100 |  | 68.3 | > 100 | > 100 | > 100 | > 100 | > 100 | > 100 | > 100 | > 100 | > 100 | > 100 | > 100
9 | CC(=O)NC1C(OCc2ccccc2)OC(CO)C(O)C1OCC(=O)N[C@@H](C)C(=O)N[C@H](CCC(=O)NCCNc1ccc([N+](=O)[O-])c2[nH]c3ccccc3c(=O)c12)C(N)=O (stereo not given in full) | 85.8 |  | > 100 | 54.3 | > 100 | > 100 | 83.2 | 46 | > 100 | 60.5 | > 100 | > 100 | > 100 | 90 | > 100 | > 100 | 67.9 | > 100
10 | C/C(O[Si](C(C)C)(C(C)C)C(C)C)=C(\C)C(=O)N(C)c1ccccc1Cl | > 100 | > 100 | > 100 | > 100 | > 100 | > 100 | > 100 | > 100 | > 100 | > 100 | > 100 |  |  | > 100 | > 100 | > 100 | > 100 | > 100
11 | Cc1cn(C2OC(CO)C(O)C2F)c(=O)[nH]c1=O (stereo not given) | > 100 | > 100 | > 100 | > 100 | > 100 | > 100 | > 100 | > 100 | > 100 | > 100 | > 100 | > 100 | > 100 | > 100 |  | > 100 | > 100 | > 100
12 | Cc1cc(N(CCC#N)CCC#N)ccc1/C(N=Nc1ccc([N+](=O)[O-])cc1)=N\NC(=O)c1ccccc1 | 71.4 | > 100 | > 100 | > 100 | > 100 |  | > 100 | > 100 | > 100 | > 100 | > 100 | > 100 | > 100 | > 100 | > 100 | > 100 | > 100 | > 100
13 | COc1ccc(CCN2C(=O)CC34C=CC(CC3C2=O)O4)cc1OC (stereo not given) | > 100 |  | > 100 | > 100 | > 100 | > 100 | > 100 | > 100 | > 100 | > 100 | > 100 | > 100 | > 100 | > 100 | > 100 | > 100 | > 100 | > 100
14 | NS(=O)(=O)c1nnc(NS(=O)(=O)c2ccc([N+](=O)[O-])cc2)s1 | > 100 | > 100 | > 100 |  | > 100 | > 100 | > 100 | > 100 | > 100 | > 100 | > 100 |  | > 100 | > 100 | > 100 |  | > 100 | > 100
15 | COCOc1cc(OC)ccc1C/C(=N/O)C(=O)OC | > 100 | > 100 | > 100 | > 100 | > 100 | > 100 | > 100 | > 100 | > 100 | > 100 | > 100 | > 100 | > 100 | > 100 |  | > 100 | > 100 | > 100
16 | O=C1C(Cl)=C(NCCF)C(=O)c2ncccc21 | 7.29 | 4.22 | 2.99 | 3.03 |  | 3.41 | 3.21 | 2.99 | 3.38 | 3.08 |  | 0.806 | 2.82 | 3.51 | > 10 | 3.35 |  | 3.29
17 | Cc1ccc(/S(Cc2ccccc2)=N\S(=O)(=O)c2ccc(C)cc2)cc1 (stereo not given) | > 100 | > 100 | > 100 | > 100 | > 100 | > 100 | > 100 | > 100 | > 100 | > 100 |  | > 100 | > 100 | > 100 | > 100 | > 100 |  | > 100
18 | NC(N)=N/N=C/c1c(-c2cc([N+](=O)[O-])c(Cl)cc2Cl)nc2n1CCS2 | 27.5 | > 100 | 87.2 | 54.2 |  | 22.2 | > 100 | 9.7 | > 100 | > 100 | > 100 | > 100 | > 100 | 48.3 | > 100 | > 100 | 33.9 | > 100
19 | C1=NCCOCCN=Cc2ccc(cc2)OCc2cccc(n2)COc2ccc1cc2 | > 100 | > 100 | > 100 | > 100 | > 100 | > 100 | > 100 | > 100 | > 100 | > 100 |  | > 100 | > 100 | > 100 | > 100 | > 100 | > 100 | > 100
20 | Cc1ccc(SCC(OCn2cnc3c(Cl)nc(N)nc32)[C@H](C)F)cc1 (stereo not given in full) | > 100 | > 100 | > 100 | > 100 | > 100 | > 100 | > 100 | > 100 | > 100 |  | > 100 | > 100 |  | > 100 | > 100 | > 100 | > 100 | > 100
21 | COc1ccc2c(c1OC)C(=O)O[C@@H]2[C@H]1c2c(cc3c(c2OC)OCO3)CCN1C | > 100 | > 100 | > 100 | > 100 | > 100 | > 100 | > 100 | > 100 | > 100 |  | > 100 | > 100 | > 100 | > 100 | > 100 | > 100 | > 100 | > 100
22 | CCOC(=O)C1(C(=O)OCC)C=C(c2ccccc2)N(C2OC(COC(C)=O)C(OC(C)=O)C(OC(C)=O)C2OC(C)=O)C1=S (stereo not given) | > 100 | > 100 | > 100 | > 100 | > 100 | > 100 | > 100 | > 100 | > 100 | > 100 | > 100 | > 100 |  | > 100 | 44.3 | > 100 | > 100 | > 100
23 | [N-]=[N+]=Nc1ccc2c(c1)Sc1ccccc1N2CCCCN1CCN(C(=O)CCNC(=O)Cc2ccc(C(=O)c3ccccc3)cc2)CC1 | 4.67 | 16 | > 100 | 9.96 | 8.92 | 9.89 | 22.9 | 10.6 | 23 | > 100 | > 100 | 8.26 |  | > 44 | 4.87 | > 33 | > 25.6 | 51.4
24 | O=C(NC1(C(=O)O)CCCC1)c1ccccc1 | > 100 | > 100 | > 100 | > 100 | > 100 | > 100 | > 100 | > 100 | > 100 | > 100 | > 100 | > 100 | > 100 | > 100 | > 100 | > 100 |  | > 100
25 | C=CCn1c(-c2ccc(Cl)cc2)csc1=Nc1ccccc1OC |  | > 100 | > 100 | 29.7 | > 100 | > 100 | > 100 | > 100 | > 100 |  | > 100 | > 100 | 19.4 | > 100 | > 100 | > 100 | > 100 | > 100
26 | C=C(C)C(=O)OC1C[C@H](COC(C)=O)C2CC=C(CO)C2C2OC(=O)C(=C)[C@H]12 (stereo not given in full) | > 100 | 60.2 | > 100 | > 100 | 30 | > 100 | 97.1 | > 100 | > 100 | > 100 | > 100 | 31.5 | 54.4 | > 100 | > 100 |  |  | > 100
27 | CCOC1CCN(C(=O)c2ccccc2)O1 (stereo not given) | > 10 | > 10 | > 10 | > 10 | > 10 | > 10 | > 10 | > 10 |  | > 10 | > 10 | > 10 | > 10 | > 10 | > 10 | > 10 | > 10 | > 10
